Common to all, as to type: cell-based, bovine
In series [1] the test system is E2F activity in T. parva-infected B cells. As to the kind of experiment: E2F-luc reporter assay, T. parva-infected B cells. The conditions noted are these: penetrating peptide. As for the experimental part:
(§1) Since no system for genetic manipulation is available yet for intracellular Theileria, we instead incubated T. parva- and T. annulata-infected bovine leukocytes (transfected with a luciferase reporter regulated from an E2F promoter) with synthesized peptides containing the RB-binding LXCXE motif, or a mutated LXNXE negative control, linked to a cell-penetrating peptide. If the LXCXE-containing peptide can regulate E2F activity in a sequence-specific manner, we would expect it to increase E2F activity, and that this effect would be reduced or abrogated in the mutated LXNXE peptide-treated group.
TpMD409.B2 cells were co-transfected with 20 μg (E2F-luc, mE2F-luc), or 10 μg (cyclin E-luc) reporter construct, 20 μg of expression vector and 5 μg of pCMV-lacZ, where indicated. Luciferase and β-galactosidase activities were measured 24 h after transfection according to previously published procedures. TpMD409.B2 cells were also co-transfected with pCMV-HA-DP-1 D103–126 and c-myc-luciferase as previously described.
The amino acid sequence of RB-1 based on the parasite sequence ([…]) was synthesized. Cysteine in wild type RB1 was replaced by an Asparagine (N; in bold […]). The penetrating peptide to facilitate cell entry is underlined. […]
On the technique in general: In a reporter assay the amount or activity of a reporter protein is the signal.

The subject of series [2] is E2F activity in T. annulata-infected B cells. Briefly: E2F-luc reporter assay, T. annulata-infected B cells (TBL20). The conditions noted are these: T. annulata-infected B cells, E2F-luc, 1 μM penetrating peptide, 2 hrs. The protocol:
as §1
(§2) (a) TpMD409B.2 cells were transfected with E2F-luc (WT = wild-type E2F binding construct), or mutated E2F-luc constructs (labeled ‘mutated’) together with a CMV-lacZ plasmid to normalize for transfection efficiency. Luciferase and β-galactosidase activities were measured 24 hrs after transfection. E2F-luc relative luciferase activity normalized to mE2F-luc. Shown is the average of 3 independent experiments with standard deviation. BL20 or TBL20 cells were treated with (b) 1μM of penetrating peptides ([…]-K(FITC)) containing the TpGcpE LXCXE motif, or an LXNXE control ([…]-K(FITC)) or (c) E2F inhibitor or DMSO control, and then counted by hemacytometer after the indicated timepoints. Shown is the average of 3 independent experiments with standard deviation. Then, either (d) virulent Ode T. annulata-transformed macrophages, or (e) BL20/TBL20 T. annulata-transformed cells were transfected with E2F-luc plasmid (or mutated E2F-luc as in (c)) and incubated for 24 hrs at 37 °C. Then, cells were treated with penetrating peptides as in (b) for 2 hrs and luciferase activity was quantified. […]
TpMD409.B2 cells were co-transfected with 20 μg (E2F-luc, mE2F-luc), or 10 μg (cyclin E-luc) reporter construct, 20 μg of expression vector and 5 μg of pCMV-lacZ, where indicated. Luciferase and β-galactosidase activities were measured 24 h after transfection according to previously published procedures. […]

Series [3] concerns E2F activity in T. annulata-infected macrophages. Briefly: E2F-luc reporter assay, T. annulata-transformed macrophages (Ode). The settings on record: 1 μM penetrating peptide, 2 hrs. The protocol: as §1
as §2, with “Shown is the average of 3 independent experiments with standard deviation. Then, either (d) virulent Ode T. annulata-transformed macrophages, or (e) BL20/TBL20 T. annulata-transformed cells were transfected with E2F-luc plasmid (or mutated E2F-luc as in (c)) and incubated for 24 hrs at 37 °C.” left out

The next series has as its system BL20/TBL20 cells. The settings on record: penetrating peptides, 24 h and 48 h; data not shown. As for the experimental part: Since the LXCXE peptide can induce E2F activity, we investigated whether it could, on its own, increase bovine leukocyte proliferation. To extend our observations to T. annulata-infected leukocytes, we incubated T. annulata-infected B cells with WT or mutated LXNXE peptides and counted cell numbers at 24 h and 48 h.
The amino acid sequence of RB-1 based on the parasite sequence ([…]) was synthesized. Cysteine in wild type RB1 was replaced by an Asparagine (N; in bold […]). The penetrating peptide to facilitate cell entry is underlined. 3 different concentrations of peptides were used for 2 h to determine the minimum effective concentration (1 μM) with minimum toxic effect, which was used to perform each experiment as indicated.

Series [4] has as its system T. parva-transformed TpMD409.B2 cells. Briefly: Western blot of RB/E2F pathway proteins after parasite killing. The settings on record: buparvaquone 50 ng/ml. The source says: The discovery of these peptides led us to investigate the particular RB/E2F signaling components in Theileria-infected cells. Eight E2F transcription factor genes have been identified in mammals, which can be divided into two groups: activators (E2F-1, E2F-2, E2F-3a), which can bind RB, and repressors (e.g. E2F-3b, E2F-4, E2F-5), which can bind RB, p107 and p130. The balance between the activator and repressor E2Fs seems to be primarily controlled by the phosphorylation status of the associated pocket proteins to which they bind. E2F interactions with the Dimerization Partner (DP) ligands are also important for regulating E2F transcription factor activity. We used Western blot to compare the levels of RB family, E2F, and DP-1 protein between T. parva-transformed cells that were left untreated with those treated with buparvaquone to kill the parasite and induce an arrest in host cell proliferation. By comparing expression levels between the buparvaquone-treated and untreated groups, we can determine parasite-dependent changes in the expression levels of these proteins. […] These faster migrating bands likely correspond to hypophosphorylated, proliferation-suppressive forms of RB and p130, at 24 h and 48 h after treatment with buparvaquone.
Figure 2 RB/E2F signaling is activated by Theileria parasites. (a) Western blot analysis (left) of E2F-1, E2F-3 E2F-4, DP-1, pRB, and p130 expression in TpMD409B.2 cells, either left untreated (−), or treated (+) for 24 h and 48 h with buparvaquone (BQ), including band intensity quantification (right). Shown are representatives of three independent experiments. (b) E2F DNA binding activity in TpMD409B.2 cells was assayed by EMSA using gP32- labeled double-stranded oligonucleotide spanning E2F binding sites from the dhfr gene promoter. Left panel, nuclear extracts from TpMD409B.2 cells were incubated with γP32-labeled probe in absence or presence of a 100 fold molar excess of unlabeled wild type (WT), or mutated (MUT) double-stranded oligonucleotide. Binding reactions were resolved by non-denaturing polyacrylamide gel, which was processed afterwards for autoradiography. Right panel, EMSA analysis of E2F DNA binding activity in nuclear extracts from untreated, proliferating TpMD409B.2 cells (−) and TpMD409B.2 cells treated for 24 and 48 h with the parasiticidal drug buparvaquone (+). Arrows indicate E2F in complex with RB family proteins (Complexes) or free E2F protein (Free). (c) Flow cytometric analysis of BrdU incorporation and DNA content in TpMD409B.2 cells, either left untreated (control), or treated with buparvaquone for 24 h and 48 h. Shown is a representative of three independent experiments. […]

For series [5], the system named is E2F binding sites from the dhfr gene promoter; TpMD409.B2 nuclear extracts. As to the kind of experiment: E2F DNA binding activity by EMSA. The settings on record: buparvaquone 50 ng/ml, 24 h and 48 h. (In EMSA bound probe runs differently from free probe, usually more slowly.)
Procedure: (a) Western blot analysis (left) of E2F-1, E2F-3 E2F-4, DP-1, pRB, and p130 expression in TpMD409B.2 cells, either left untreated (−), or treated (+) for 24 h and 48 h with buparvaquone (BQ), including band intensity quantification (right). Shown are representatives of three independent experiments. (b) E2F DNA binding activity in TpMD409B.2 cells was assayed by EMSA using gP32- labeled double-stranded oligonucleotide spanning E2F binding sites from the dhfr gene promoter. Left panel, nuclear extracts from TpMD409B.2 cells were incubated with γP32-labeled probe in absence or presence of a 100 fold molar excess of unlabeled wild type (WT), or mutated (MUT) double-stranded oligonucleotide. Binding reactions were resolved by non-denaturing polyacrylamide gel, which was processed afterwards for autoradiography. […]
The subject of series [6] is T. parva-transformed TpMD409.B2 cells. Briefly: Flow cytometric BrdU incorporation. The conditions noted are these: untreated vs buparvaquone-treated, 24 h and 48 h. The source says: The discovery of these peptides led us to investigate the particular RB/E2F signaling components in Theileria-infected cells. Eight E2F transcription factor genes have been identified in mammals, which can be divided into two groups: activators (E2F-1, E2F-2, E2F-3a), which can bind RB, and repressors (e.g. E2F-3b, E2F-4, E2F-5), which can bind RB, p107 and p130. The balance between the activator and repressor E2Fs seems to be primarily controlled by the phosphorylation status of the associated pocket proteins to which they bind. E2F interactions with the Dimerization Partner (DP) ligands are also important for regulating E2F transcription factor activity. We used Western blot to compare the levels of RB family, E2F, and DP-1 protein between T. parva-transformed cells that were left untreated with those treated with buparvaquone to kill the parasite and induce an arrest in host cell proliferation. By comparing expression levels between the buparvaquone-treated and untreated groups, we can determine parasite-dependent changes in the expression levels of these proteins. […]
Figure 2 RB/E2F signaling is activated by Theileria parasites. (a) Western blot analysis (left) of E2F-1, E2F-3 E2F-4, DP-1, pRB, and p130 expression in TpMD409B.2 cells, either left untreated (−), or treated (+) for 24 h and 48 h with buparvaquone (BQ), including band intensity quantification (right). […]
A general note: In flow cytometry, cells or beads pass a laser one at a time.

On to “VKKKKIKREIKIYIEEVFTPLVLKNKELK-K(FITC) [LXNXE peptide, penetrating peptide with mutated LXNXE motif, negative control]”, for which the E2F reporter activity result in series [1], in series [2] and in series [3] was “did not show the same reporter activity as the LXCXE peptide” each time. For the same compound, the cell viability entry with BL20/TBL20 cells is reported as “no effect on cell viability”.
For `CC(C)(C)[C@H]1CC[C@H](CC2=C(O)C(=O)c3ccccc3C2=O)CC1` [buparvaquone], in series [4] (24 h and 48 h, vs untreated), the “pRB and p130 migration” value was “migrate faster in parasite-killed TpMD409.B2 cells than in untreated cells”. Moreover, in series [4] (48 h), the E2F-4 protein levels result is “E2F-4 levels remain unaltered” and the “slower-migrating DP-1 band” value is “a slower-migrating DP-1 band increases”. In series [4] (after 48 h but not 24 h), the “E2F-1 and E2F-3 protein levels” value is “E2F-1 and E2F-3 protein levels decrease”. In series [5], the “E2F DNA binding activity” value was “overall decrease in E2F DNA binding activity”; the “slow and intermediate complexes bound to E2F-dependent promoter” value is “increase in complexes migrating at slow and intermediate speed bound to an E2F-dependent promoter”. In addition, the “proliferation, dependence on the parasite” value in series [6] is “Proliferation was also confirmed to be dependent on the parasite”.
